# In ChEMBL document CHEMBL5257136, “PROTAC Targeted Degradation of IRAK-4 as Potential Treatment in Cancer” (ACS Med Chem Lett, 2023):
# Target: T1, Protein cereblon/Interleukin-1 receptor-associated kinase 4 (Homo sapiens, UniProt Q96SW2+Q9NWZ3)
# Experiment: Binding affinity to CRBN/IRAK4 in human PBMC cells assessed as inhibition of LPS-stimulated IL-6 production incubated for 24 hrs by MSD analysis
# Type: cell-based
# T1 sequence (Q9NWZ3 whole entry): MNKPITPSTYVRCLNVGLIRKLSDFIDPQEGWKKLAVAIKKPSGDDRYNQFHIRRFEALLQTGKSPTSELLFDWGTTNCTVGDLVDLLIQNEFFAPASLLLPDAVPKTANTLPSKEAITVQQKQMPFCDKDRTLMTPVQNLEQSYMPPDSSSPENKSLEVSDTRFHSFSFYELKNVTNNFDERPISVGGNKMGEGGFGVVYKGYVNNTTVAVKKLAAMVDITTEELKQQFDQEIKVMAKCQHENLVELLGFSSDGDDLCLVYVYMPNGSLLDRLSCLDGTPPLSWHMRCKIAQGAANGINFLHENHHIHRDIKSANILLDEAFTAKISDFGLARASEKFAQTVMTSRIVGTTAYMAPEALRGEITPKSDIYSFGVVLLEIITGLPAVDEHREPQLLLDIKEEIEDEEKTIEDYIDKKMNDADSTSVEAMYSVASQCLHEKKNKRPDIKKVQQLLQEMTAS
# T1 sequence (Q96SW2 whole entry): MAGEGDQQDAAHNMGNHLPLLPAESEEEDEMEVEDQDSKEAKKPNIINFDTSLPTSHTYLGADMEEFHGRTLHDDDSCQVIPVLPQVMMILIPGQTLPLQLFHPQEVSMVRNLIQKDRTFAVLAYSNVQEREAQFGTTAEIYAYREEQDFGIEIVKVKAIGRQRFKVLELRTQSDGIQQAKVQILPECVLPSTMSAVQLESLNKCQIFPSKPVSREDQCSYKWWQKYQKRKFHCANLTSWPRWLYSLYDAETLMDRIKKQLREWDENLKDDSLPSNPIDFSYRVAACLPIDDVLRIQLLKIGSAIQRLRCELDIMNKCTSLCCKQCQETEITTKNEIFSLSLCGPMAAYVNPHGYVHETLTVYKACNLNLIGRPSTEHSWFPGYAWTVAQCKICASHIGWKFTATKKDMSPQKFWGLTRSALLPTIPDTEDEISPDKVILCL
row,IC50,Structure (SMILES)
1,< 10 nM,O=C1CCC(N2Cc3cc(N4CCC(CN5CCC(N6Cc7cc(NC(=O)c8cnn9cccnc89)c(N8CCC(N9CCC9)CC8)cc7C6=O)CC5)CC4)ccc3C2=O)C(=O)N1 (stereo not given)
2,< 10 nM,O=C1CCC(N2Cc3ccc(N4CCC(CN5CCC(n6cc7cc(NC(=O)c8cnn9cccnc89)c(OCC8CC8)cc7n6)CC5)CC4)cc3C2=O)C(=O)N1 (stereo not given)
3,≥ 10 nM,O=C1CCC(N2C(=O)c3ccc(N4CCC(CN5CCC(N6Cc7cc(NC(=O)c8cnn9cccnc89)c(N8CCN(CC(F)F)CC8)cc7C6=O)CC5)CC4)cc3C2=O)C(=O)N1 (stereo not given)
4,< 10 nM,CC(C)Oc1cc2c(cc1NC(=O)c1cnn3cccnc13)CN(C1CCN(CC3CCN(c4ccc5c(c4)C(=O)N(C4CCC(=O)NC4=O)C5=O)CC3)CC1)C2=O (stereo not given)
5,< 10 nM,O=C1CCC(N2Cc3c(ccc(N4CCC(CN5CCC(n6cc7cc(NC(=O)c8cnn9cccnc89)c(N8CCN(CC(F)F)CC8)cc7n6)CC5)CC4)c3F)C2=O)C(=O)N1 (stereo not given)
6,≥ 10 nM,CC(C)Oc1cc2c(cc1NC(=O)c1cnn3cccnc13)CN(C1CCN(C(C)(C)C3CN(c4ccc5c(c4)C(=O)N(C4CCC(=O)NC4=O)C5=O)C3)CC1)C2=O (stereo not given)
7,≥ 10 nM,O=C1CCC(N2Cc3cc(N4CCC(CN5CCC(n6cc7cc(NC(=O)c8cnn9cccnc89)c(OCC(F)F)cc7n6)CC5)CC4)ccc3C2=O)C(=O)N1 (stereo not given)
8,≥ 10 nM,CC(C)Oc1cc2c(cc1NC(=O)c1cnn3cccnc13)CN(C1CCN(CC3(F)CN(c4ccc5c(c4F)CN(C4CCC(=O)NC4=O)C5=O)C3)CC1)C2=O (stereo not given)
9,< 10 nM,O=C1CCC(N2Cc3ccc(N4CCC(CN5CCC(N6Cc7cc(NC(=O)c8cnn9cccnc89)c(N8CCC(N9CCC9)CC8)cc7C6=O)CC5)CC4)cc3C2=O)C(=O)N1 (stereo not given)
10,< 10 nM,O=C1CCC(N2Cc3ccc(N4CC(F)(CN5CCC(N6Cc7cc(NC(=O)c8cnn9cccnc89)c(N8CCC(N9CCC9)CC8)cc7C6=O)CC5)C4)cc3C2=O)C(=O)N1 (stereo not given)

# Target: T1, Protein cereblon/Interleukin-1 receptor-associated kinase 4
# Experiment: Binding affinity to CRBN/IRAK4 in human PBMC cells assessed as inhibition of R848-stimulated IL-6 production incubated for 24 hrs by MSD analysis
# Type: cell-based
row,IC50,Structure (SMILES)
1,< 10 nM,O=C1CCC(N2Cc3cc(N4CCC(CN5CCC(N6Cc7cc(NC(=O)c8cnn9cccnc89)c(N8CCC(N9CCC9)CC8)cc7C6=O)CC5)CC4)ccc3C2=O)C(=O)N1 (stereo not given)
2,< 10 nM,O=C1CCC(N2Cc3ccc(N4CCC(CN5CCC(n6cc7cc(NC(=O)c8cnn9cccnc89)c(OCC8CC8)cc7n6)CC5)CC4)cc3C2=O)C(=O)N1 (stereo not given)
3,≥ 10 nM,O=C1CCC(N2C(=O)c3ccc(N4CCC(CN5CCC(N6Cc7cc(NC(=O)c8cnn9cccnc89)c(N8CCN(CC(F)F)CC8)cc7C6=O)CC5)CC4)cc3C2=O)C(=O)N1 (stereo not given)
4,< 10 nM,CC(C)Oc1cc2c(cc1NC(=O)c1cnn3cccnc13)CN(C1CCN(CC3CCN(c4ccc5c(c4)C(=O)N(C4CCC(=O)NC4=O)C5=O)CC3)CC1)C2=O (stereo not given)
5,< 10 nM,O=C1CCC(N2Cc3c(ccc(N4CCC(CN5CCC(n6cc7cc(NC(=O)c8cnn9cccnc89)c(N8CCN(CC(F)F)CC8)cc7n6)CC5)CC4)c3F)C2=O)C(=O)N1 (stereo not given)
6,≥ 10 nM,CC(C)Oc1cc2c(cc1NC(=O)c1cnn3cccnc13)CN(C1CCN(C(C)(C)C3CN(c4ccc5c(c4)C(=O)N(C4CCC(=O)NC4=O)C5=O)C3)CC1)C2=O (stereo not given)
7,< 10 nM,O=C1CCC(N2Cc3cc(N4CCC(CN5CCC(n6cc7cc(NC(=O)c8cnn9cccnc89)c(OCC(F)F)cc7n6)CC5)CC4)ccc3C2=O)C(=O)N1 (stereo not given)
8,≥ 50 nM,CC(C)Oc1cc2c(cc1NC(=O)c1cnn3cccnc13)CN(C1CCN(CC3(F)CN(c4ccc5c(c4F)CN(C4CCC(=O)NC4=O)C5=O)C3)CC1)C2=O (stereo not given)
9,< 10 nM,O=C1CCC(N2Cc3ccc(N4CCC(CN5CCC(N6Cc7cc(NC(=O)c8cnn9cccnc89)c(N8CCC(N9CCC9)CC8)cc7C6=O)CC5)CC4)cc3C2=O)C(=O)N1 (stereo not given)
10,< 10 nM,O=C1CCC(N2Cc3ccc(N4CC(F)(CN5CCC(N6Cc7cc(NC(=O)c8cnn9cccnc89)c(N8CCC(N9CCC9)CC8)cc7C6=O)CC5)C4)cc3C2=O)C(=O)N1 (stereo not given)

# Target: T2, Protein cereblon/Interleukin-1 receptor-associated kinase 4 (Homo sapiens) (UniProt Q9NWZ3+Q96SW2)
# Experiment: Binding affinity to CRBN/IRAK4 in human PBMC cells assessed as inhibition of LPS-stimulated IL-6 production by measuring maximal efficacy incubated for 24 hrs by MSD analysis relative to control
# Type: cell-based
# T2 sequence (Q96SW2 whole entry, looked up): as the sequence (Q96SW2 whole entry) above
# T2 sequence (Q9NWZ3 whole entry, looked up): as the sequence (Q9NWZ3 whole entry) above
row,Emax,Structure (SMILES)
1,> 90%,O=C1CCC(N2Cc3cc(N4CCC(CN5CCC(N6Cc7cc(NC(=O)c8cnn9cccnc89)c(N8CCC(N9CCC9)CC8)cc7C6=O)CC5)CC4)ccc3C2=O)C(=O)N1 (stereo not given)
2,80%,O=C1CCC(N2Cc3ccc(N4CCC(CN5CCC(n6cc7cc(NC(=O)c8cnn9cccnc89)c(OCC8CC8)cc7n6)CC5)CC4)cc3C2=O)C(=O)N1 (stereo not given)
3,80%,O=C1CCC(N2C(=O)c3ccc(N4CCC(CN5CCC(N6Cc7cc(NC(=O)c8cnn9cccnc89)c(N8CCN(CC(F)F)CC8)cc7C6=O)CC5)CC4)cc3C2=O)C(=O)N1 (stereo not given)
4,80%,CC(C)Oc1cc2c(cc1NC(=O)c1cnn3cccnc13)CN(C1CCN(CC3CCN(c4ccc5c(c4)C(=O)N(C4CCC(=O)NC4=O)C5=O)CC3)CC1)C2=O (stereo not given)
5,80%,O=C1CCC(N2Cc3c(ccc(N4CCC(CN5CCC(n6cc7cc(NC(=O)c8cnn9cccnc89)c(N8CCN(CC(F)F)CC8)cc7n6)CC5)CC4)c3F)C2=O)C(=O)N1 (stereo not given)
6,> 90%,CC(C)Oc1cc2c(cc1NC(=O)c1cnn3cccnc13)CN(C1CCN(C(C)(C)C3CN(c4ccc5c(c4)C(=O)N(C4CCC(=O)NC4=O)C5=O)C3)CC1)C2=O (stereo not given)
7,70%,O=C1CCC(N2Cc3cc(N4CCC(CN5CCC(n6cc7cc(NC(=O)c8cnn9cccnc89)c(OCC(F)F)cc7n6)CC5)CC4)ccc3C2=O)C(=O)N1 (stereo not given)
8,> 90%,CC(C)Oc1cc2c(cc1NC(=O)c1cnn3cccnc13)CN(C1CCN(CC3(F)CN(c4ccc5c(c4F)CN(C4CCC(=O)NC4=O)C5=O)C3)CC1)C2=O (stereo not given)
9,> 90%,O=C1CCC(N2Cc3ccc(N4CCC(CN5CCC(N6Cc7cc(NC(=O)c8cnn9cccnc89)c(N8CCC(N9CCC9)CC8)cc7C6=O)CC5)CC4)cc3C2=O)C(=O)N1 (stereo not given)
10,80%,O=C1CCC(N2Cc3ccc(N4CC(F)(CN5CCC(N6Cc7cc(NC(=O)c8cnn9cccnc89)c(N8CCC(N9CCC9)CC8)cc7C6=O)CC5)C4)cc3C2=O)C(=O)N1 (stereo not given)

# Target: T2, Protein cereblon/Interleukin-1 receptor-associated kinase 4 (Homo sapiens)
# Experiment: Binding affinity to CRBN/IRAK4 in human PBMC cells assessed as inhibition of R848-stimulated IL-6 production by measuring maximal efficacy incubated for 24 hrs by MSD analysis relative to control
# Type: cell-based
row,Emax,Structure (SMILES)
1,> 90%,O=C1CCC(N2Cc3cc(N4CCC(CN5CCC(N6Cc7cc(NC(=O)c8cnn9cccnc89)c(N8CCC(N9CCC9)CC8)cc7C6=O)CC5)CC4)ccc3C2=O)C(=O)N1 (stereo not given)
2,> 90%,O=C1CCC(N2Cc3ccc(N4CCC(CN5CCC(n6cc7cc(NC(=O)c8cnn9cccnc89)c(OCC8CC8)cc7n6)CC5)CC4)cc3C2=O)C(=O)N1 (stereo not given)
3,80%,O=C1CCC(N2C(=O)c3ccc(N4CCC(CN5CCC(N6Cc7cc(NC(=O)c8cnn9cccnc89)c(N8CCN(CC(F)F)CC8)cc7C6=O)CC5)CC4)cc3C2=O)C(=O)N1 (stereo not given)
4,> 90%,CC(C)Oc1cc2c(cc1NC(=O)c1cnn3cccnc13)CN(C1CCN(CC3CCN(c4ccc5c(c4)C(=O)N(C4CCC(=O)NC4=O)C5=O)CC3)CC1)C2=O (stereo not given)
5,> 90%,O=C1CCC(N2Cc3c(ccc(N4CCC(CN5CCC(n6cc7cc(NC(=O)c8cnn9cccnc89)c(N8CCN(CC(F)F)CC8)cc7n6)CC5)CC4)c3F)C2=O)C(=O)N1 (stereo not given)
6,> 90%,CC(C)Oc1cc2c(cc1NC(=O)c1cnn3cccnc13)CN(C1CCN(C(C)(C)C3CN(c4ccc5c(c4)C(=O)N(C4CCC(=O)NC4=O)C5=O)C3)CC1)C2=O (stereo not given)
7,> 90%,O=C1CCC(N2Cc3cc(N4CCC(CN5CCC(n6cc7cc(NC(=O)c8cnn9cccnc89)c(OCC(F)F)cc7n6)CC5)CC4)ccc3C2=O)C(=O)N1 (stereo not given)
8,> 90%,CC(C)Oc1cc2c(cc1NC(=O)c1cnn3cccnc13)CN(C1CCN(CC3(F)CN(c4ccc5c(c4F)CN(C4CCC(=O)NC4=O)C5=O)C3)CC1)C2=O (stereo not given)
9,> 90%,O=C1CCC(N2Cc3ccc(N4CCC(CN5CCC(N6Cc7cc(NC(=O)c8cnn9cccnc89)c(N8CCC(N9CCC9)CC8)cc7C6=O)CC5)CC4)cc3C2=O)C(=O)N1 (stereo not given)
10,> 90%,O=C1CCC(N2Cc3ccc(N4CC(F)(CN5CCC(N6Cc7cc(NC(=O)c8cnn9cccnc89)c(N8CCC(N9CCC9)CC8)cc7C6=O)CC5)C4)cc3C2=O)C(=O)N1 (stereo not given)
